The values that follow are results of earlier work, collected in US8883820B2, “Triazole derivatives as kinase inhibitors” (Cellzome Ltd., priority 2006, dated 2014).

Series [1] has as its system systemic lupus erythematosus (SLE). The following applies: intraperitoneal administration.
The subject of series [2] is collagen II-antibody-induced arthritis. The following applies: oral, wildtype mice.
The subject of series [3] is lymphocyte-dependent rheumatoid arthritis induced by direct collagen II injection. Conditions: oral.

In the case of `O=C1NC(=O)/C(=C\c2ccc3nccnc3c2)S1` [AS-605240], in series [1], the “CD4+ T-cell populations” value is on record as “reduced CD4+ T-cell populations”, the glomerulonephritis entry is “reduced glomerulonephritis” and the life span result was “prolonged life span”. Also, the “clinical and histologic signs of collagen II-antibody-induced arthritis” value in series [2] was “reduced clinical and histologic signs”. The “joint inflammation and damage” value in series [3] was “decreased joint inflammation and damage”.
On to `Nc1nc(N)c2nc(-c3cccc(O)c3)c(-c3cccc(O)c3)nc2n1` [TG100-115], for which the cardioprotection result in the series with myocardial infarction (dosing after myocardial reperfusion (up to 3 hours after)) is “provided cardioprotection”. Moreover, the “edema and inflammation in response to multiple mediators” value in the series on myocardial infarction (in vivo) was “potently inhibits”.
